Assay results reported in US20260234123A1, “Inhibitors of NLRP3” (Mwyngil Therapeutics, Inc., priority 2023, published 2026).

Test system: IL1b release THP-1
Test: IL1b release THP-1 (ELISA)
Assay type: cell-based
Conditions: Homo sapiens; average EC50; THP-1 cells primed with 1 μg/ml LPS 4 h, stimulated with 10 μM Nigericin 2 h; IL-1β in supernatant by ELISA; read-out: THP 1 IL 1b, EC50
Experimental: Example A. Primary Assays Used to Determine IL1b Release THP-1 (ELISA)
• Microbiological safety cabinet, classII (NuAire, USA) • CO2 incubator (VWR Science, USA) • Countess Automated Cell Counter (Invitrogen, USA, cat. number C10227) • Centrifuge CM 6M (Elmi, Latvia) • Serological pipettes 2, 5, 10, 25, 50, 100 ml sterile (Santa Cruz Biotechnology, Inc., USA, sc-200277, sc-200279, sc-200281, sc-200283, Sc-213234, sc-516777) • Single and multichannel pipettes 0.2-10 μL, 50-1200 μL (Eppendorf AG-Hamburg, Germany) • 50 mL PP sterile tubes (Greiner, cat. Number 210261).
• RPMI-1640 (PanEco, C330) • Sodium pyruvate (Paneco, cat. number Φ023) • Non-Essential amino acids 50× (Paneco, Φ116) • Essential amino acids 50× (Paneco, Φ115/50) • FBS (Hyclone Laboratories Inc, USA, SV30160.03) • Antibiotic-antimycotic (Gibco, USA, 15240-062) • 2-mercaptoethanol 1000×55 mM (Gibco, USA, 21985-023) • LPS-EB ultrapure (invivogen, cat. number tlrl-3pelps) • Nigericin (Sigma, cat. number N7143) • ELISA kit, IL-1beta (Cat #A-8766, Interleukin-1 beta-EIA-BEST, Vector Best). LPS Preparation (5 mg/ml): • 1. Add 1 ml of endotoxin-free water according manufacturer's protocol • 2. Vortex until complete solubilization • 3. Aliquote and store at […] for long term storage.
• 1. Add methanol to 10 mg of powder to produce the 10 mM Nigericin solution • 2. Vortex until complete solubilization • 3. Store at 4° C.
THP-1 cells were propagated in RPMI-1640 (10% FBS, Antibiotic-antimycotic 1×, non-Essential amino acids 1×, Essential amino acids 1×, Sodium pyruvate 2×, 2-mercaptoethanol 0.05 mM) at 37° C. and at 5% CO2 in an incubator.
• 1. THP-1 cells were spined at 100 g for 5 min in 50 ml tube. • 2. THP-1 cells were resuspended in warm culture medium (w/o FBS, w/o Antibiotic-antimycotic, non-Essential amino acids 1×, Essential amino acids 1×, Sodium pyruvate 2×) to the concentration 1,3×10^6 cells. • 3. THP-1 cells were primed in tube with 1 μg/ml of LPS for 4 h at 37° C. and at 5% CO2 in an incubator. • 4. THP-1 cells were stimulated with 10 μM of Nigericin (Cat #N7143-10 MG, Sigma Aldrich) for 2 h at 37° C. and at 5% CO2 in an incubator. • 5. After the full activation, the supernatant was collected and the levels of IL-1β were assessed via ELISA according manufacturer instructions (Cat #A-8766, Vector Best).
The average EC50 values are shown in Table A, wherein “A” corresponds to EC50: A≤0.5 μM, “B” corresponds to 0.5 μM<EC50≤1.0 μM, “C” 1.0 μM<EC50≤5.0 μM, “D” corresponds to 5.0 μM<EC50≤30 μM and “E” corresponds to EC50>30 μM.

CCN1CCC[C@@H](Nc2cc(C)c(-c3ccc(C(F)(F)F)cc3NS(=O)(=O)CC)nn2)C1 [Compound 63, N-[2-[6-[[(3R)-1-ethyl-3-piperidyl]amino]-4-methyl-pyridazin-3-yl]-5-(trifluoromethyl)phenyl]ethanesulfon-amide] gave an EC50 of less than 500 nM.

CCN1CCC[C@@H](Nc2nnc(-c3ccc(C(F)(F)F)cc3NS(=O)(=O)C3CC3)cc2C)C1 [Compound 64] was tested, and the EC50 was less than 500 nM.

For CCN1CCC[C@@H](Nc2cc(C)c(-c3ccc(C(F)(F)F)cc3NS(=O)(=O)C3CC3)nn2)C1 [Compound 65, (R)—N-(2-(6-((1-Ethylpiperidin-3-yl)amino)-4-methylpyridazin-3-yl)-5-(trifluoromethyl)phenyl) cyclopropanesulfonamide], the EC50 was less than 500 nM.

With CCN1C[C@H](F)C[C@@H](Nc2nnc(-c3ccc(C(F)(F)F)cc3NS(C)(=O)=O)cc2C)C1 [Compound 66, N-(2-(6-(((3R,5R)-1-ethyl-5-fluoropiperidin-3-yl)amino)-5-methylpyridazin-3-yl)-5-(trifluoromethyl)phenyl) methanesulfonamide] the EC50 was 500 to 1000 nM.

With Cc1cc(-c2ccc(C(F)(F)F)cc2NS(C)(=O)=O)nnc1N[C@@H]1CCCNC1 [Compound 67, (R)—N-(2-(5-methyl-6-(piperidin-3-ylamino)pyridazin-3-yl)-5-(trifluoromethyl)phenyl) methanesulfonamide] the EC50 was 1000 to 5000 nM.

CCN1CCC[C@@H](Nc2nnc(-c3ccc(C(F)(F)F)cc3NS(=O)(=O)c3c[nH]cn3)cc2C)C1 [Compound 68, (R)—N-(2-(6-((1-Ethylpiperidin-3-yl)amino)-5-methylpyridazin-3-yl)-5-(trifluoromethyl)phenyl)-1H-imidazole-5-sulfonamide] showed an EC50 of 5000 to 30000 nM.

With CCN1CCC[C@@H](Nc2cc(C)c(-c3ccc(C(F)(F)F)cc3NS(=O)(=O)c3c[nH]cn3)nn2)C1 [Compound 69, N-[2-[6-[[(3R)-1-ethyl-3-piperidyl]amino]-4-methyl-pyridazin-3-yl]-5-(trifluoromethyl)phenyl]-1H-imidazole-4-sulfonamide] the EC50 was 1000 to 5000 nM.

CCN1CCC[C@@H](Nc2cc(C)c(-c3ccc(C(F)(F)F)cc3NS(=O)(=O)C(C)C)nn2)C1 [Compound 70, N-[2-[6-[[(3R)-1-ethyl-3-piperidyl]amino]-4-methyl-pyridazin-3-yl]-5-(trifluoromethyl)phenyl]propane-2-sulfonamide] was tested, and the EC50 was 1000 to 5000 nM.

Work on Cc1cc(N[C@@H]2CCCNC2)nnc1-c1ccc(C(F)(F)F)cc1NS(C)(=O)=O [Compound 71, N-[2-[4-methyl-6-[[(3R)-3-piperidyl]amino]pyridazin-3-yl]-5-(trifluoromethyl)phenyl]methanesulfon-amide] yielded an EC50 of 1000 to 5000 nM.

Molecule CCN1CCC[C@@H](Nc2nnc(-c3ccc(C(F)(F)F)cc3NS(=O)(=O)C(C)C)cc2C)C1 [Compound 72] has an EC50 of 5000 to 30000 nM.

Molecule CN1CCC[C@@H](Nc2nnc(-c3ccc(C(F)(F)F)c4c3NS(=O)(=O)N4)cc2C(F)(F)F)C1 [Compound 93, 6-[2,2-dioxo-4-(trifluoromethyl)-1,3-dihydro-2lambda6,1,3-benzothiadiazol-7-yl]-N-[(3R)-1-methyl-3-piperidyl]-4-(trifluoromethyl)pyridazin-3-amine] has an EC50 of 5000 to 30000 nM.

Work on Cc1cc(N[C@@H]2CCCN(C)C2)nnc1-c1ccc(C(F)(F)F)c(N)c1N [Compound 100, (R)-3-(4-methyl-6-((1-methylpiperidin-3-yl)amino)pyridazin-3-yl)-6-(trifluoromethyl)benzene-1,2-diamine] yielded an EC50 of less than 500 nM.

CN1CCC[C@@H](Nc2cc(C(F)(F)F)c(-c3ccc(C(F)(F)F)c(N)c3N)nn2)C1 [Compound 101, 3-[6-[[(3R)-1-methyl-3-piperidyl]amino]-4-(trifluoromethyl)pyridazin-3-yl]-6-(trifluoromethyl)benzene-1,2-diamine] showed an EC50 of 1000 to 5000 nM.

For CN1CCC[C@@H](Nc2nnc(-c3ccc(C(F)(F)F)c(N)c3N)cc2C(F)(F)F)C1 [Compound 102, 3-[6-[[(3R)-1-methyl-3-piperidyl]amino]-5-(trifluoromethyl)pyridazin-3-yl]-6-(trifluoromethyl)benzene-1,2-diamine], the EC50 was 5000 to 30000 nM.

Cc1cc(-c2ccc(C(F)(F)F)c(N)c2N)nnc1N[C@@H]1CCCN(C)C1 [Compound 103, 3-[5-methyl-6-[[(3R)-1-methyl-3-piperidyl]amino]pyridazin-3-yl]-6-(trifluoromethyl)benzene-1,2-diamine] was tested, and the EC50 was 5000 to 30000 nM.

With CNc1cc(C(F)(F)F)ccc1-c1nnc(N[C@@H]2CCCN(C(C)C)C2)cc1C [Compound 108, N-[(3R)-1-isopropyl-3-piperidyl]-5-methyl-6-[2-(methylamino)-4-(trifluoromethyl)phenyl]pyridazin-3-amine] the EC50 was less than 500 nM.

In the case of CCNc1cc(C(F)(F)F)ccc1-c1nnc(N[C@@H]2CCCN(C(C)C)C2)cc1C [Compound 109, 6-[2-(ethylamino)-4-(trifluoromethyl)phenyl]-N-[(3R)-1-isopropyl-3-piperidyl]-5-methyl-pyridazin-3-amine], the EC50 is reported as less than 500 nM.

Molecule Cc1cc(N[C@@H]2CCCN(C(C)C)C2)nnc1-c1ccc(C(F)(F)F)cc1N [Compound 110, (R)-6-(2-Amino-4-(trifluoromethyl)phenyl)-N-(1-isopropylpiperidin-3-yl)-5-methyl pyridazin-3-amine] has an EC50 of less than 500 nM.

Cc1cc(N[C@@H]2CCCN(C(C)C)C2)nnc1-c1ccc(C(F)(F)F)cc1NC(C)C [Compound 111, 6-[2-(isopropylamino)-4-(trifluoromethyl)phenyl]-N-[(3R)-1-isopropyl-3-piperidyl]-5-methyl-pyridazin-3-amine] gave an EC50 of less than 500 nM.

In the case of Cc1cc(N[C@@H]2CCCN(C(C)C)C2)nnc1-c1ccc(C(F)(F)F)cc1Nc1ccccc1 [Compound 112, 6-[2-anilino-4-(trifluoromethyl)phenyl]-N-[(3R)-1-isopropyl-3-piperidyl]-5-methyl-pyridazin-3-amine], the EC50 is reported as less than 500 nM.

With Cc1cc(N[C@@H]2CCCN(C(C)C)C2)nnc1-c1ccc(C(F)(F)F)cc1NC(=O)C(F)F [Compound 113] the EC50 was less than 500 nM.

CCNc1cc(C(F)(F)F)ccc1-c1cc(C)c(N[C@@H]2CCCN(C(C)C)C2)nn1 [Compound 114, 6-[2-(ethylamino)-4-(trifluoromethyl)phenyl]-N-[(3R)-1-isopropyl-3-piperidyl]-4-methyl-pyridazin-3-amine] gave an EC50 of less than 500 nM.

With Cc1cc(-c2ccc(C(F)(F)F)cc2NC(C)C)nnc1N[C@@H]1CCCN(C(C)C)C1 [Compound 115, 6-[2-(isopropylamino)-4-(trifluoromethyl)phenyl]-N-[(3R)-1-isopropyl-3-piperidyl]-4-methyl-pyridazin-3-amine] the EC50 was less than 500 nM.

CCN1CCC[C@@H](Nc2cc(C)c(-c3ccc(C(F)(F)F)cc3NC(=O)C(F)(F)F)nn2)C1 [Compound 116, N-[2-[6-[[(3R)-1-ethyl-3-piperidyl]amino]-4-methyl-pyridazin-3-yl]-5-(trifluoromethyl)phenyl]-2,2,2-trifluoro-acetamide] gave an EC50 of less than 500 nM.

For Cc1cc(N[C@@H]2CCCN(C(C)C)C2)nnc1-c1ccc(C(F)(F)F)cc1NC(=O)C(F)(F)F [Compound 117, (R)-2,2,2-Trifluoro-N-(2-(6-((1-isopropylpiperidin-3-yl)amino)-4-methylpyridazin-3-yl)-5-(trifluoromethyl)phenyl) acetamide], the EC50 was less than 500 nM.

Cc1cc(-c2ccc(C(F)(F)F)cc2N)nnc1N[C@@H]1CCCN(C(C)C)C1 [Compound 118, 6-[2-amino-4-(trifluoromethyl)phenyl]-N-[(3R)-1-isopropyl-3-piperidyl]-4-methyl-pyridazin-3-amine] showed an EC50 of less than 500 nM.

For CNc1cc(C(F)(F)F)ccc1-c1cc(C)c(N[C@@H]2CCCN(C(C)C)C2)nn1 [Compound 119, N-[(3R)-1-isopropyl-3-piperidyl]-4-methyl-6-[2-(methylamino)-4-(trifluoromethyl)phenyl]pyridazin-3-amine], the EC50 was less than 500 nM.

Cc1cc(-c2ccc(C(F)(F)F)cc2NC(=O)C(F)F)nnc1N[C@@H]1CCCN(C(C)C)C1 [Compound 120] was tested, and the EC50 was less than 500 nM.
